Earlier results as cited in patent publication US20030167159A1, “Method for determining molecular surface areas and volumes” (California Institute of Technology, priority 2001, published 2003).
Blank lines part the entries; values can stand above or below the molecule they belong to. Where a SMILES comes first, the peptide text is derived from it.

Tests used:
Conditions in all cases: as reported in Bursulaya et al.
[1] = molecular target: T1, L-Arabinose binding protein (ara) (Escherichia coli, UniProt P02924)
T1 sequence (P02924 24-329): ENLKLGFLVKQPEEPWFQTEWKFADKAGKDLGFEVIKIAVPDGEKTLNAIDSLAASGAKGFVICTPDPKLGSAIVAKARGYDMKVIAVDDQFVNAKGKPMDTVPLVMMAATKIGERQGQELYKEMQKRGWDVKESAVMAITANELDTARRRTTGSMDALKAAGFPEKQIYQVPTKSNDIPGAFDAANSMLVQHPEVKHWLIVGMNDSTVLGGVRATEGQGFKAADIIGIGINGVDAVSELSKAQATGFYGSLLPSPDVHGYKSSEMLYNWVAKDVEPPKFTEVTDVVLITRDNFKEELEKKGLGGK

Carboxypeptidase A (car) = molecular target: T2, Carboxypeptidase A (car) (Bos taurus, UniProt P00730)
T2 sequence (P00730 111-419): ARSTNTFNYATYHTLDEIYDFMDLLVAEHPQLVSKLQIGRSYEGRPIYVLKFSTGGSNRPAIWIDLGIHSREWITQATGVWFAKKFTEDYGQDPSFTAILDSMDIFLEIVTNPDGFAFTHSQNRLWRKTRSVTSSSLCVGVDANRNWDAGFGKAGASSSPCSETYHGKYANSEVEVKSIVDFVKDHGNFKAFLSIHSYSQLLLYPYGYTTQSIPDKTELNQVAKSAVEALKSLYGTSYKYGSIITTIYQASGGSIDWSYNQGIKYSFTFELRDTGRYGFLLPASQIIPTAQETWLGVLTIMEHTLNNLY

ε-Thrombin (ret) = molecular target: T3, ε-Thrombin (ret) (Bos taurus, UniProt P00735)
T3 construct: ε-Thrombin (ret)

Trypsin (trp) = molecular target: T4, Trypsin (trp) (Bos taurus, UniProt P00760)
T4 sequence (P00760 24-246): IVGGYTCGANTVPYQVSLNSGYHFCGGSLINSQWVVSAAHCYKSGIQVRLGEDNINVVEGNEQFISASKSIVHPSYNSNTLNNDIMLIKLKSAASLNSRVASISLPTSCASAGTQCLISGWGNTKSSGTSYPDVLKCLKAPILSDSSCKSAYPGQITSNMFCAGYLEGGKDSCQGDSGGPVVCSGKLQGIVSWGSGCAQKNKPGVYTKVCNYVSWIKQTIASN

[2] = molecular target: T5, Cytochrome P-450cam (cyt) (Pseudomonas putida, UniProt P00183)
T5 sequence (P00183 1-415): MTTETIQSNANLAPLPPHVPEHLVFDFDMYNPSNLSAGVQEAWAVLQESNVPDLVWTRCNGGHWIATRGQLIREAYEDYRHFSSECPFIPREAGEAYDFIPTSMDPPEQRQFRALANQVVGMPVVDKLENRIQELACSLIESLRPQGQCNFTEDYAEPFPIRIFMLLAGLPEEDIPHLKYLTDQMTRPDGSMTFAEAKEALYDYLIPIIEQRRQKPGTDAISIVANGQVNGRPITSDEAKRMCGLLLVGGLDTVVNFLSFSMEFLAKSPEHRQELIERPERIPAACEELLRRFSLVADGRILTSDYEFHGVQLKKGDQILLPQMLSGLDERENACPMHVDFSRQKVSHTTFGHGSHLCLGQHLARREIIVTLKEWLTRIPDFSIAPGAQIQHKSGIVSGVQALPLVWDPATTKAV

Intestinal FABP (fab) = molecular target: T6, Intestinal FABP (fab) (Rattus norvegicus, UniProt P02693)
T6 sequence (P02693 1-132): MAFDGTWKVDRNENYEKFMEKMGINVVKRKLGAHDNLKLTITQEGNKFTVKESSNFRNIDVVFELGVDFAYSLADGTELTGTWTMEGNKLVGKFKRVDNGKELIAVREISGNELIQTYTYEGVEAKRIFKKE

SMILES: O[C@@H]1[C@@H](O)[C@@H](O)CO[C@H]1O [1abe]
- percentage of ligands in the 10037-compound database that score better than the co-crystal ligand, DOCK [1]: 0.5%
- percentage of ligands in the 10037-compound database that score better than the co-crystal ligand, FlexX [1]: 0.2%
- percentage of ligands in the 10037-compound database that score better than the co-crystal ligand, ICM [1]: 0.01%

SMILES: C[C@H]1O[C@H](O)[C@H](O)[C@@H](O)[C@H]1O [1abf]
- percentage of ligands in the 10037-compound database that score better than the co-crystal ligand, DOCK [1]: 1.2%
- percentage of ligands in the 10037-compound database that score better than the co-crystal ligand, FlexX [1]: 0.2%
- percentage of ligands in the 10037-compound database that score better than the co-crystal ligand, ICM [1]: 0.03%

SMILES: O=C(O)C[C@@H](Cc1ccccc1)C(=O)O [1cbx]
- percentage of ligands in the 10037-compound database that score better than the co-crystal ligand, DOCK (Carboxypeptidase A (car)): 36.8%
- percentage of ligands in the 10037-compound database that score better than the co-crystal ligand, FlexX (Carboxypeptidase A (car)): 2.7%
- percentage of ligands in the 10037-compound database that score better than the co-crystal ligand, ICM (Carboxypeptidase A (car)): 0.2%

SMILES: NCCc1ccccc1 [1tnj]
- percentage of ligands in the 10037-compound database that score better than the co-crystal ligand, DOCK (Trypsin (trp)): 45.1%
- percentage of ligands in the 10037-compound database that score better than the co-crystal ligand, FlexX (Trypsin (trp)): 47.9%
- percentage of ligands in the 10037-compound database that score better than the co-crystal ligand, ICM (Trypsin (trp)): 1.1%

SMILES: N[C@H]1C[C@@H]1c1ccccc1 [1tnl]
- percentage of ligands in the 10037-compound database that score better than the co-crystal ligand, DOCK (Trypsin (trp)): 82.9%
- percentage of ligands in the 10037-compound database that score better than the co-crystal ligand, FlexX (Trypsin (trp)): 39.1%
- percentage of ligands in the 10037-compound database that score better than the co-crystal ligand, ICM (Trypsin (trp)): 51.6%

SMILES: CC12CCC(CC1=O)C2(C)C (stereo not drawn) [2cpp]
- percentage of ligands in the 10037-compound database that score better than the co-crystal ligand, DOCK ([2]; Dock): 7.3%
- percentage of ligands in the 10037-compound database that score better than the co-crystal ligand, FlexX ([2]; FlexX): 12.6%
- percentage of ligands in the 10037-compound database that score better than the co-crystal ligand, ICM ([2]; ICM): 11.7%

Second part, the molecule after the results:

- percentage of ligands in the 10037-compound database that score better than the co-crystal ligand, DOCK (ε-Thrombin (ret); Dock): 0.9%
- percentage of ligands in the 10037-compound database that score better than the co-crystal ligand, FlexX (ε-Thrombin (ret); FlexX): 9%
- percentage of ligands in the 10037-compound database that score better than the co-crystal ligand, ICM (ε-Thrombin (ret); ICM): 0.06%
SMILES: Cc1ccc(S(=O)(=O)N[C@@H](Cc2ccc(C(=N)N)cc2)C(=O)N2CCCCC2)cc1 [1ett]

- percentage of ligands in the 10037-compound database that score better than the co-crystal ligand, DOCK (Trypsin (trp)): 37%
- percentage of ligands in the 10037-compound database that score better than the co-crystal ligand, FlexX (Trypsin (trp)): 0.6%
- percentage of ligands in the 10037-compound database that score better than the co-crystal ligand, ICM (Trypsin (trp)): 0.3%
SMILES: Cc1ccc(S(=O)(=O)N[C@@H](Cc2cccc(C(=N)N)c2)C(=O)N2CCCCC2)cc1 [1pph]

- percentage of ligands in the 10037-compound database that score better than the co-crystal ligand, DOCK (Trypsin (trp)): 28.7%
- percentage of ligands in the 10037-compound database that score better than the co-crystal ligand, FlexX (Trypsin (trp)): 30.8%
- percentage of ligands in the 10037-compound database that score better than the co-crystal ligand, ICM (Trypsin (trp)): 0.3%
SMILES: NCC1CCCCC1 [1tng]

- percentage of ligands in the 10037-compound database that score better than the co-crystal ligand, DOCK (Trypsin (trp)): 58.1%
- percentage of ligands in the 10037-compound database that score better than the co-crystal ligand, FlexX (Trypsin (trp)): 37.1%
- percentage of ligands in the 10037-compound database that score better than the co-crystal ligand, ICM (Trypsin (trp)): 14.6%
SMILES: NCCCc1ccccc1 [1tnk]

- percentage of ligands in the 10037-compound database that score better than the co-crystal ligand, DOCK (Intestinal FABP (fab); Dock): 7.1%
- percentage of ligands in the 10037-compound database that score better than the co-crystal ligand, FlexX (Intestinal FABP (fab); FlexX): 99.3%
- percentage of ligands in the 10037-compound database that score better than the co-crystal ligand, ICM (Intestinal FABP (fab); ICM): 0.5%
SMILES: CCCCCCCCCCCCCCCC(=O)O [2ifb]

- percentage of ligands in the 10037-compound database that score better than the co-crystal ligand, DOCK (Carboxypeptidase A (car)): 14.2%
- percentage of ligands in the 10037-compound database that score better than the co-crystal ligand, FlexX (Carboxypeptidase A (car)): 1.4%
- percentage of ligands in the 10037-compound database that score better than the co-crystal ligand, ICM (Carboxypeptidase A (car)): 0.3%
SMILES: NCC(=O)N[C@@H](Cc1ccc(O)cc1)C(=O)O [3cpa] (H-Gly-Tyr-OH)

- percentage of ligands in the 10037-compound database that score better than the co-crystal ligand, DOCK (Trypsin (trp)): 20.3%
- percentage of ligands in the 10037-compound database that score better than the co-crystal ligand, FlexX (Trypsin (trp)): 14%
- percentage of ligands in the 10037-compound database that score better than the co-crystal ligand, ICM (Trypsin (trp)): 0.1%
SMILES: N=C(N)c1ccccc1 [3ptb]

- percentage of ligands in the 10037-compound database that score better than the co-crystal ligand, DOCK [1]: 0.2%
- percentage of ligands in the 10037-compound database that score better than the co-crystal ligand, FlexX [1]: 0.4%
- percentage of ligands in the 10037-compound database that score better than the co-crystal ligand, ICM [1]: 0.02%
SMILES: OC[C@H]1OC(O)[C@H](O)[C@@H](O)[C@H]1O (stereo partly drawn) [5abp]
